Test results taken from ChEMBL document CHEMBL4364250, “Improvement of Asparagine Ethylenediamines as Anti-malarial Plasmodium-Selective Proteasome Inhibitors” (J Med Chem, 2019).
The source made the active and inactive calls. No cut-off for these calls is given here.

How the values were obtained:
Plasmodium falciparum [1] = assay: (§1) Inhibition of Plasmodium falciparum 20S proteasome beta5 subunit using suc-LLVY-AMC as substrate in presence of beta2 inhibitor WLW-VS
[2] = as §1
[3] = molecular target: T1, Proteasome Macropain subunit MB1 (Homo sapiens, UniProt P28074); assay: Inhibition of human beta5 20S constitutive proteasome using suc-LLVY-AMC as substrate; conditions: for inhibition (INH): human
T1 sequence (P28074 whole entry): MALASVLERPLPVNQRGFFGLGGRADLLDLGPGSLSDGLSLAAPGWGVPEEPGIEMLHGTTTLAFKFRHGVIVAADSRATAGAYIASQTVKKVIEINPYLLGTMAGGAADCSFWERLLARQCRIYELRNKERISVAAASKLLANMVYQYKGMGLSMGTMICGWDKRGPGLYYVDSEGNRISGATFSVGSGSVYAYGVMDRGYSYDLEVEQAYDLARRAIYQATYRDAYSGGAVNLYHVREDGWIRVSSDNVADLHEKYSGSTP

Karpas-1106P = assay: Cytotoxicity against human KARPAS1106P cells; format: cell-based
HepG2 = assay: Cytotoxicity against human HepG2 cells; format: cell-based
[4] = molecular target: T2, Proteasome subunit beta type-8 (Homo sapiens, UniProt P28062); assay: Inhibition of human beta5 20S immunoproteasome using Ac-ANW-AMC as substrate; conditions: for inhibition (INH): human
T2 sequence (P28062 whole entry): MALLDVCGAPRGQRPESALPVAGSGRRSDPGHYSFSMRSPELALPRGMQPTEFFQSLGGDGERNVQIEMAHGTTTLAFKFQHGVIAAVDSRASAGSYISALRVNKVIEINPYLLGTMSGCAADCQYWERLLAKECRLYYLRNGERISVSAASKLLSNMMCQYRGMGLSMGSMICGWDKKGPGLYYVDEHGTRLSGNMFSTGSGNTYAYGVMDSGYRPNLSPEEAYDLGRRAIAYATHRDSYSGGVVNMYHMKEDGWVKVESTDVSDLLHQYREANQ

Plasmodium falciparum [5] = assay: Antimalarial activity against erythrocytic stage of Plasmodium falciparum 3D7 measured after 72 hrs by SYBR green dye based fluorescence assay; format: functional, organism-based; conditions: 3D7, 72 h
[6] = tested on: beta5 subunit of human 20S constitutive proteasome; assay: Selectivity ratio of IC50 for human beta5 20S constitutive proteasome to IC50 for Plasmodium falciparum 20S proteasome beta5 subunit; format: toxicity; conditions: read-out: Ratio IC50
[7] = tested on: beta5 subunit of human 20S immunoproteasome; assay: Selectivity ratio of IC50 for human beta5 20S immunoproteasome to IC50 for Plasmodium falciparum 20S proteasome beta5 subunit; format: toxicity; conditions: read-out: Ratio IC50
Plasmodium falciparum [8] = assay: Antimalarial activity against erythrocytic stage of Plasmodium falciparum Dd2 measured after 72 hrs by SYBR green dye based fluorescence assay; format: functional, organism-based; conditions: Dd2, 72 h
Plasmodium falciparum [9] = assay: Resistance index, ratio of EC50 for erythrocytic stage of Plasmodium falciparum Dd2 harboring 20S beta6 proteasome A117D mutant to EC50 erythrocytic stage of Plasmodium falciparum Dd2
[10] = Clearance in mouse liver microsomes; format: ADME, Microsome; conditions: read-out: CLH
[11] = Permeability of the compound at pH 7.4 by PAMPA; format: ADME; conditions: read-out: permeability
[12] = Clearance in human liver microsomes; format: ADME, Microsome; conditions: read-out: CLH
Plasmodium falciparum [13] = assay: Inhibition of MV151 binding to Plasmodium falciparum 20S proteasome beta5 subunit preincubated for 1 hr followed by MV151 addition and measured after 1 hr by fluorescence assay
[14] = Clearance in rat liver microsomes; format: ADME, Microsome; conditions: read-out: CLH
Plasmodium falciparum [15] = assay: Resistance index, ratio of EC50 for erythrocytic stage of Plasmodium falciparum Dd2 harboring 20S beta5 proteasome A49S mutant to EC50 erythrocytic stage of Plasmodium falciparum Dd2; format: functional
Plasmodium falciparum [16] = assay: Antimalarial activity against erythrocytic stage of Plasmodium falciparum Dd2 harboring 20S beta5 proteasome A49S mutant measured after 72 hrs by SYBR green dye based fluorescence assay; format: functional, organism-based; conditions: Dd2, 72 h
Plasmodium falciparum [17] = assay: microbe, parasite or virus in culture; conditions: 72 h
Description: Antimalarial activity against Plasmodium falciparum clinical isolate measured after 72 hrs by SYBR green dye based fluorescence assay

Plasmodium falciparum [18] = assay: Antimalarial activity against erythrocytic stage of Plasmodium falciparum Dd2 harboring 20S beta2 proteasome A117D mutant measured after 72 hrs by SYBR green dye based fluorescence assay; format: functional, organism-based; conditions: Dd2, 72 h
Plasmodium falciparum [19] = assay: Antimalarial activity against erythrocytic stage of Plasmodium falciparum Dd2 measured after 72 hrs in presence of 20S beta2 inhibitor WLW-VS by SYBR green dye based fluorescence assay; format: functional, organism-based
Plasmodium falciparum [20] = assay: Inhibition of MV151 binding to Plasmodium falciparum 20S proteasome beta5 subunit A49S mutant at 1.2 to 33.3 uM preincubated for 1 hr followed by MV151 addition and measured after 1 hr by fluorescence assay
Plasmodium falciparum [21] = assay: Inhibition of MV151 binding to Plasmodium falciparum 20S proteasome beta2 subunit preincubated for 1 hr followed by MV151 addition and measured after 1 hr by fluorescence assay
Plasmodium falciparum [22] = assay: Inhibition of MV151 binding to Plasmodium falciparum 20S proteasome beta1 subunit preincubated for 1 hr followed by MV151 addition and measured after 1 hr by fluorescence assay

Row | SMILES | inhibition (Plasmodium falciparum [1]) | IC50 [2] [nM] | IC50 [3] [nM] | inhibition (INH) [3] | EC50 (Karpas-1106P) [nM] | EC50 (HepG2) [nM] | IC50 [4] [nM] | inhibition (INH) [4] | EC50 (Plasmodium falciparum [5]) [nM] | selectivity ratio [6] | selectivity ratio [7] | EC50 (Plasmodium falciparum [8]) [nM] | Ratio EC50 (Plasmodium falciparum [9]) | microsomal CLint [10] [µL/min/mg] | Papp [11] [×10⁻⁶ cm/s] | microsomal CLint [12] [µL/min/mg] | microsomal CLint [14] [µL/min/mg] | Ratio EC50 (Plasmodium falciparum [15]) | EC50 (Plasmodium falciparum [16]) [nM] | EC50 (Plasmodium falciparum [18]) [nM] | further results
1 | Cc1ccc(S(=O)(=O)N[C@@H](CC(=O)NC(C)(C)C)C(=O)NCCNC(=O)c2cc(C)ccc2F)cc1 | Dose-dependent effect | 20.7 | 12000 | Dose-dependent effect | > 11100 | > 11000 | 384 | Dose-dependent effect | 13.9 | 581 | 19 |  |  |  |  |  |  |  |  |  | 
2 | C#Cc1cccc(C(=O)NCCNC(=O)[C@H](CC(=O)NC(C)(C)C)NS(=O)(=O)c2ccc(C)cc2)c1 | Dose-dependent effect | 4.7 | 430 | Dose-dependent effect | > 11100 | > 11000 | 112 | Dose-dependent effect | 3.1 | 91 | 24 | 3.3 | 19 | 97 | 20.3 | 61 | 61 | 152 | 502 | 61.9 | inhibition (Plasmodium falciparum [13]): Dose-dependent effect; EC50 (Plasmodium falciparum [17]): 7.1 nM
3 | Cc1ccc(S(=O)(=O)N[C@@H](CC(=O)NC(C)(C)C)C(=O)NCCNC(=O)c2ccccc2)cc1 |  | 20.8 | 1410 |  | > 11100 | > 11000 | 100 |  | 8.4 | 68 | 4.8 | 7.7 | 14 | 64 | 13.7 | 122 | 66 | 17 | 135 | 111 | Activity (Plasmodium falciparum [19]): Active; inhibition (Plasmodium falciparum [20]): Active
4 | Cc1ccc(S(=O)(=O)N[C@@H](CC(=O)NC(C)(C)C)C(=O)NCCNC(=O)c2ccccc2F)cc1 |  | 32 | 1140 |  | > 11100 | > 11000 | 169 |  | 7.5 | 36 | 5.3 |  |  | 141 | 10.5 | 141 | 124 |  |  |  | inhibition (Plasmodium falciparum [21]): inactive; inhibition (Plasmodium falciparum [22]): inactive
